Results as given in paper PMC7093416, “Selective USP7 inhibition elicits cancer cell killing through a p53-dependent mechanism” (Scientific Reports, 2020).

System: panel of 484 cancer cell lines
Assay: PRISM cancer cell line profiling, 5 days
Format: cell-based
Parameters: AUC: unit not given beside the values
Protocol: Cancer cell line profiling was performed using the Broad’s PRISM platform. Cell treatment and data analysis were performed as described in Yu et al[42]. Raw Luminex signal was converted to AUC values for each cell line as described. The resulting AUC profile for each compound was modeled against DepMap using the limma package in R[71]. Because hotspot mutation analysis was performed against DepMap, TP53 annotations in Fig. 6c,d are directly from DepMap.

What does the source list for `COc1ccc(C2=N[C@@H](c3ccc(Cl)cc3)[C@@H](c3ccc(Cl)cc3)N2C(=O)N2CCNC(=O)C2)c(OC(C)C)c1` [Nutlin-3A]?
AUC (NCIH2170_LUNG): 1.154; AUC (NCIH2172_LUNG): 1.147; AUC (NCIH2228_LUNG): 1.087; AUC (NCIH2347_LUNG): 0.9531; AUC (NCIH2444_LUNG): 1.324; AUC (NCIH2452_PLEURA): 1.028; AUC (NCIN87_STOMACH): 1.465; AUC (NUGC3_STOMACH): 1.1161; AUC (NUGC4_STOMACH): 0.888; AUC (OAW42_OVARY): 1.011; AUC (OC314_OVARY): 0.964; AUC (OC316_OVARY): 0.9756; AUC (OE19_OESOPHAGUS): 1.199; AUC (OE21_OESOPHAGUS): 1.087; AUC (OE33_OESOPHAGUS): 0.9763; AUC (ONCODG1_OVARY): 1.1325; AUC (ONS76_CENTRAL_NERVOUS_SYSTEM): 0.8865; AUC (OSRC2_KIDNEY): 0.8477; AUC (OUMS23_LARGE_INTESTINE): 1.065; AUC (OV56_OVARY): 1.192; AUC (OVCAR8_OVARY): 1.207; AUC (OVISE_OVARY): 0.8578; AUC (OVK18_OVARY): 0.8595; AUC (OVSAHO_OVARY): 1.156; AUC (OVTOKO_OVARY): 0.9039; AUC (PANC1_PANCREAS): 1.1; AUC (PANC0203_PANCREAS): 1.166; AUC (PANC0327_PANCREAS): 1.409; AUC (PANC0403_PANCREAS): 1.138; AUC (PANC0813_PANCREAS): 1.0676; AUC (PANC1005_PANCREAS): 1.216; AUC (PATU8902_PANCREAS): 1.154; AUC (PATU8988S_PANCREAS): 1.234; AUC (PATU8988T_PANCREAS): 1.162; AUC (PC3_PROSTATE): 0.976; AUC (PC14_LUNG): 1.1376; AUC (PECAPJ15_UPPER_AERODIGESTIVE_TRACT): 1.095; AUC (PECAPJ41CLONED2_UPPER_AERODIGESTIVE_TRACT): 1.019; AUC (PECAPJ49_UPPER_AERODIGESTIVE_TRACT): 1.2004; AUC (PK1_PANCREAS): 1.122; AUC (PK45H_PANCREAS): 1.1189; AUC (PK59_PANCREAS): 1.0633; AUC (PLCPRF5_LIVER): 1.234; AUC (PSN1_PANCREAS): 1.126; AUC (QGP1_PANCREAS): 1.087; AUC (RCC10RGB_KIDNEY): 0.8832; AUC (RCM1_LARGE_INTESTINE): 1.202; AUC (RD_SOFT_TISSUE): 1.042; AUC (RERFLCAD1_LUNG): 1.147; AUC (RERFLCAD2_LUNG): 1.183; AUC (RERFLCAI_LUNG): 1.0697; AUC (RERFLCKJ_LUNG): 1.11; AUC (RERFLCMS_LUNG): 1.091; AUC (RH30_SOFT_TISSUE): 1.041; AUC (RKN_SOFT_TISSUE): 1.06; AUC (RKO_LARGE_INTESTINE): 0.9236; AUC (RL952_ENDOMETRIUM): 0.9689; AUC (RMGI_OVARY): 0.9145; AUC (RMUGS_OVARY): 1.151; AUC (RT4_URINARY_TRACT): 1.199; AUC (RT112_URINARY_TRACT): 0.9358; AUC (RVH421_SKIN): 1.087; AUC (S117_SOFT_TISSUE): 1.193; AUC (SBC5_LUNG): 1.066; AUC (SCABER_URINARY_TRACT): 1.156; AUC (SCC25_UPPER_AERODIGESTIVE_TRACT): 1.213; AUC (SF126_CENTRAL_NERVOUS_SYSTEM): 0.9298; AUC (SF295_CENTRAL_NERVOUS_SYSTEM): 1.194; AUC (SF539_CENTRAL_NERVOUS_SYSTEM): 1.114; AUC (SH4_SKIN): 0.9981; AUC (SH10TC_STOMACH): 1.171; AUC (SIMA_AUTONOMIC_GANGLIA): 1.067; AUC (SJSA1_BONE): 0.8737; AUC (SKES1_BONE): 1.109; AUC (SKHEP1_LIVER): 0.8252; AUC (SKLU1_LUNG): 1.249; AUC (SKMEL2_SKIN): 1.0683; AUC (SKMEL3_SKIN): 1.137; AUC (SKMEL5_SKIN): 0.8995; AUC (SKMEL24_SKIN): 0.8575; AUC (SKMEL30_SKIN): 1.211; AUC (SKMES1_LUNG): 0.9911; AUC (SKNAS_AUTONOMIC_GANGLIA): 1.242; AUC (SKNBE2_AUTONOMIC_GANGLIA): 1.137; AUC (SKOV3_OVARY): 1.101; AUC (SKUT1_SOFT_TISSUE): 1.057; AUC (SNB75_CENTRAL_NERVOUS_SYSTEM): 1.2; AUC (SNGM_ENDOMETRIUM): 1.197; AUC (SNU46_UPPER_AERODIGESTIVE_TRACT): 1.125; AUC (SNU61_LARGE_INTESTINE): 1.275; AUC (SNU81_LARGE_INTESTINE): 1.088; AUC (SNU213_PANCREAS): 1.089; AUC (SNU245_BILIARY_TRACT): 1.207; AUC (SNU308_BILIARY_TRACT): 1.147; AUC (SNU398_LIVER): 1.135; AUC (SNU407_LARGE_INTESTINE): 0.9535; AUC (SNU410_PANCREAS): 1.257; AUC (SNU423_LIVER): 0.9946; AUC (SNU449_LIVER): 1.202; AUC (SNU466_CENTRAL_NERVOUS_SYSTEM): 1.108; AUC (SNU601_STOMACH): 1.158; AUC (SNU668_STOMACH): 0.9614; AUC (SNU685_ENDOMETRIUM): 1.162; AUC (SNU719_STOMACH): 1.114; AUC (SNU738_CENTRAL_NERVOUS_SYSTEM): 1.181; AUC (SNU761_LIVER): 1.163; AUC (SNU840_OVARY): 0.883; AUC (SNU869_BILIARY_TRACT): 1.149; AUC (SNU886_LIVER): 1.1718; AUC (SNU1041_UPPER_AERODIGESTIVE_TRACT): 1.098; AUC (SNU1066_UPPER_AERODIGESTIVE_TRACT): 1.273; AUC (SNU1076_UPPER_AERODIGESTIVE_TRACT): 1.222; AUC (SNU1077_ENDOMETRIUM): 1.256; AUC (SNU1079_BILIARY_TRACT): 1.079; AUC (SNU1105_CENTRAL_NERVOUS_SYSTEM): 1.1033; AUC (SNU1196_BILIARY_TRACT): 1.008; AUC (SNU1214_UPPER_AERODIGESTIVE_TRACT): 1.185; AUC (SNUC2A_LARGE_INTESTINE): 1.021; AUC (SNUC4_LARGE_INTESTINE): 0.9159; AUC (SNUC5_LARGE_INTESTINE): 1.066; AUC (SQ1_LUNG): 1.1; AUC (SUIT2_PANCREAS): 1.124; AUC (SW48_LARGE_INTESTINE): 0.6832; AUC (SW480_LARGE_INTESTINE): 1.185; AUC (SW579_THYROID): 1.033; AUC (SW620_LARGE_INTESTINE): 1.193; AUC (SW780_URINARY_TRACT): 0.8319; AUC (SW837_LARGE_INTESTINE): 1.121; AUC (SW900_LUNG): 1.197; AUC (SW948_LARGE_INTESTINE): 1.0613; AUC (SW1088_CENTRAL_NERVOUS_SYSTEM): 1.216; AUC (SW1271_LUNG): 0.9516; AUC (SW1353_BONE): 1.036; AUC (SW1573_LUNG): 0.9119; AUC (SW1710_URINARY_TRACT): 1.113; AUC (SW1990_PANCREAS): 1.0624; AUC (T3M10_LUNG): 1.167; AUC (T24_URINARY_TRACT): 1.096; AUC (T47D_BREAST): 1.041; AUC (T98G_CENTRAL_NERVOUS_SYSTEM): 0.9597; AUC (TCCPAN2_PANCREAS): 1.066; AUC (TCCSUP_URINARY_TRACT): 1.257; AUC (TE1_OESOPHAGUS): 1.118; AUC (TE4_OESOPHAGUS): 1.169; AUC (TE5_OESOPHAGUS): 1.116; AUC (TE6_OESOPHAGUS): 1.1488; AUC (TE8_OESOPHAGUS): 1.279; AUC (TE9_OESOPHAGUS): 0.9402; AUC (TE10_OESOPHAGUS): 1.052; AUC (TE11_OESOPHAGUS): 1.135; AUC (TEN_ENDOMETRIUM): 1.229; AUC (TM31_CENTRAL_NERVOUS_SYSTEM): 1.145; AUC (TM87_SOFT_TISSUE): 0.8528; AUC (TOV21G_OVARY): 0.8573; AUC (TOV112D_OVARY): 1.15; mean diff. between TP53 functional WT and functional mutant populations (AUC) (TP53 annotation by functional scores of Giacomelli et al.): 0.165 ± 0.011; AUC (TT2609C02_THYROID): 1.113; AUC (TT_OESOPHAGUS): 1.115; AUC (TT_THYROID): 0.8544; AUC (TUHR4TKB_KIDNEY): 0.8234; AUC (U2OS_BONE): 0.8753; AUC (U118MG_CENTRAL_NERVOUS_SYSTEM): 1.124; AUC (U251MG_CENTRAL_NERVOUS_SYSTEM): 1.1855; AUC (UACC62_SKIN): 0.841; AUC (UACC257_SKIN): 0.9099; AUC (UBLC1_URINARY_TRACT): 1.2; AUC (UMUC1_URINARY_TRACT): 1.103; AUC (UO31_KIDNEY): 0.9228; AUC (VMCUB1_URINARY_TRACT): 1.108; AUC (VMRCRCW_KIDNEY): 1.098; AUC (VMRCRCZ_KIDNEY): 1.139; AUC (WM88_SKIN): 0.8161; AUC (WM793_SKIN): 0.8713; AUC (WM983B_SKIN): 0.9957; AUC (WM1799_SKIN): 0.8817; AUC (WM2664_SKIN): 0.8653; AUC (YAPC_PANCREAS): 1.201; AUC (YD8_UPPER_AERODIGESTIVE_TRACT): 1.226; AUC (YD10B_UPPER_AERODIGESTIVE_TRACT): 1.17; AUC (YD15_SALIVARY_GLAND): 1.2; AUC (YD38_UPPER_AERODIGESTIVE_TRACT): 1.227; AUC (YH13_CENTRAL_NERVOUS_SYSTEM): 1.109; AUC (YKG1_CENTRAL_NERVOUS_SYSTEM): 1.146; AUC (ZR751_BREAST): 1.121
